The values below come from the OligoGym collection.

Oligonucleotides are written 5' to 3', each unit as a sugar letter and its base; * is a phosphorothioate linkage, no mark a phosphodiester; rarer units and linkages stand in square brackets, end groups in braces. Plain capitals give the bases only. Oligonucleotides are given in HELM: sugar(base)linkage, 5' to 3'; d 2'-deoxyribose, r ribose, m 2'-O-methylribose, p phosphate. ss, as = sense and antisense strand; d = 2'-deoxy (DNA); r = 2'-OH (RNA)
Further: test concentration or dose not given here.

One data set has as its target Cacnb1 (rat). The experiment in a line: reporter assay of Huesken 2005. The note with it: siRNA. Background: In a reporter assay the amount or activity of a reporter protein is the signal.
For “RNA1{r(G)p.r(C)p.r(A)p.r(G)p.r(A)p.r(G)p.r(U)p.r(C)p.r(C)p.r(U)p.r(A)p.r(C)p.r(A)p.r(C)p.r(G)p.r(A)p.r(G)p.r(C)p.r(C)p.d(T)p.d(T)}|RNA2{r(G)p.r(G)p.r(C)p.r(U)p.r(C)p.r(G)p.r(U)p.r(G)p.r(U)p.r(A)p.r(G)p.r(G)p.r(A)p.r(C)p.r(U)p.r(C)p.r(U)p.r(G)p.r(C)p.d(T)p.d(G)}$$$RNA1{StrandType:ss}|RNA2{StrandType:as}$”, the normalised inhibition (eCFP-eYFP dual reporter) was found to be 79.4%.
The same measure, in the same setting: in the case of “RNA1{r(G)p.r(U)p.r(G)p.r(C)p.r(G)p.r(G)p.r(A)p.r(G)p.r(G)p.r(G)p.r(U)p.r(G)p.r(G)p.r(U)p.r(G)p.r(G)p.r(G)p.r(C)p.r(C)p.d(T)p.d(T)}|RNA2{r(G)p.r(G)p.r(C)p.r(C)p.r(C)p.r(A)p.r(C)p.r(C)p.r(A)p.r(C)p.r(C)p.r(C)p.r(U)p.r(C)p.r(C)p.r(G)p.r(C)p.r(A)p.r(C)p.d(A)p.d(G)}$$$RNA1{StrandType:ss}|RNA2{StrandType:as}$” it was 52.4%; in that of “RNA1{r(U)p.r(U)p.r(U)p.r(C)p.r(A)p.r(U)p.r(C)p.r(C)p.r(C)p.r(C)p.r(A)p.r(G)p.r(C)p.r(C)p.r(C)p.r(U)p.r(G)p.r(U)p.r(C)p.d(T)p.d(T)}|RNA2{r(G)p.r(A)p.r(C)p.r(A)p.r(G)p.r(G)p.r(G)p.r(C)p.r(U)p.r(G)p.r(G)p.r(G)p.r(G)p.r(A)p.r(U)p.r(G)p.r(A)p.r(A)p.r(A)p.d(C)p.d(C)}$$$RNA1{StrandType:ss}|RNA2{StrandType:as}$”, 16.4%; in that of “RNA1{r(U)p.r(U)p.r(A)p.r(G)p.r(C)p.r(C)p.r(C)p.r(A)p.r(G)p.r(C)p.r(U)p.r(C)p.r(G)p.r(A)p.r(G)p.r(A)p.r(A)p.r(A)p.r(G)p.d(T)p.d(T)}|RNA2{r(C)p.r(U)p.r(U)p.r(U)p.r(C)p.r(U)p.r(C)p.r(G)p.r(A)p.r(G)p.r(C)p.r(U)p.r(G)p.r(G)p.r(G)p.r(C)p.r(U)p.r(A)p.r(A)p.d(G)p.d(G)}$$$RNA1{StrandType:ss}|RNA2{StrandType:as}$”, 63.7%.
Same read-out and setting: with “RNA1{r(C)p.r(C)p.r(A)p.r(C)p.r(C)p.r(C)p.r(A)p.r(A)p.r(U)p.r(C)p.r(C)p.r(G)p.r(C)p.r(U)p.r(G)p.r(C)p.r(U)p.r(G)p.r(A)p.d(T)p.d(T)}|RNA2{r(U)p.r(C)p.r(A)p.r(G)p.r(C)p.r(A)p.r(G)p.r(C)p.r(G)p.r(G)p.r(A)p.r(U)p.r(U)p.r(G)p.r(G)p.r(G)p.r(U)p.r(G)p.r(G)p.d(C)p.d(G)}$$$RNA1{StrandType:ss}|RNA2{StrandType:as}$” the figure was 81.5%; with “RNA1{r(C)p.r(U)p.r(G)p.r(A)p.r(G)p.r(G)p.r(U)p.r(A)p.r(C)p.r(A)p.r(G)p.r(A)p.r(G)p.r(U)p.r(G)p.r(A)p.r(A)p.r(A)p.r(U)p.d(T)p.d(T)}|RNA2{r(A)p.r(U)p.r(U)p.r(U)p.r(C)p.r(A)p.r(C)p.r(U)p.r(C)p.r(U)p.r(G)p.r(U)p.r(A)p.r(C)p.r(C)p.r(U)p.r(C)p.r(A)p.r(G)p.d(C)p.d(C)}$$$RNA1{StrandType:ss}|RNA2{StrandType:as}$”, 59.1%.

The next data set deals with UBE2J1. The experiment in a line: reporter assay of Huesken 2005. The following applies: siRNA.
For the substance “sense rGrArCrCrArArGrArArGrCrCrArArArGrArArCdTdT / antisense rGrUrUrCrUrUrUrGrGrCrUrUrCrUrUrGrGrUrCdAdG”, the normalised inhibition (eCFP-eYFP dual reporter) is 56.7%.
Same read-out and setting: in the case of “sense rArCrArArArArGrGrArGrArGrGrGrArGrCrCrAdTdT / antisense rUrGrGrCrUrCrCrCrUrCrUrCrCrUrUrUrUrGrUdTdG” it was 41.7%.
The same measure, in the same setting: in the case of “sense rUrCrArUrCrArArCrCrUrArCrCrCrArArCrCrUdTdT / antisense rArGrGrUrUrGrGrGrUrArGrGrUrUrGrArUrGrAdAdA” it was 47.9%; in that of “sense rArUrGrGrUrCrGrArUrUrUrGrArArGrUrGrGrGdTdT / antisense rCrCrCrArCrUrUrCrArArArUrCrGrArCrCrArUdTdA”, 56.3%.
Consider “sense rGrCrUrGrUrArCrUrGrArUrUrGrUrCrArUrCrCdTdT / antisense rGrGrArUrGrArCrArArUrCrArGrUrArCrArGrCdTdG”, for which the normalised inhibition (eCFP-eYFP dual reporter) was found to be 62.4%.
On the same count and under the same terms, in the case of “sense rCrArCrCrArGrCrCrArArGrArGrArCrArArCrCdTdT / antisense rGrGrUrUrGrUrCrUrCrUrUrGrGrCrUrGrGrUrGdGdC” it was 55.8%; in that of “sense rCrUrGrArCrUrUrUrGrGrCrArUrUrGrGrCrArGdTdT / antisense rCrUrGrCrCrArArUrGrCrCrArArArGrUrCrArGdGdA”, 76.4%.
With “sense rUrGrGrCrArArArCrGrArArUrArCrArUrArUrUdTdT / antisense rArArUrArUrGrUrArUrUrCrGrUrUrUrGrCrCrAdGdA”, the normalised inhibition (eCFP-eYFP dual reporter) amounted to 110%.
On the same count and under the same terms, in the case of “sense rUrGrCrCrArArCrArArArArGrGrArGrArGrGrGdTdT / antisense rCrCrCrUrCrUrCrCrUrUrUrUrGrUrUrGrGrCrAdTdA” it was 28.7%; in that of “sense rGrArGrUrArUrArArGrGrArCrArGrCrArUrUrAdTdT / antisense rUrArArUrGrCrUrGrUrCrCrUrUrArUrArCrUrCdCdA”, 91.4%.
On to “sense rCrUrGrArCrCrArArGrArArGrCrCrArArArGrAdTdT / antisense rUrCrUrUrUrGrGrCrUrUrCrUrUrGrGrUrCrArGdCdT”, for which the normalised inhibition (eCFP-eYFP dual reporter) stood at 73.1%.
Same read-out and setting: with “sense rUrUrUrArUrCrArCrGrGrGrCrGrGrArUrArGrUdTdT / antisense rArCrUrArUrCrCrGrCrCrCrGrUrGrArUrArArAdCdT” the figure was 51.8%; with “sense rArGrArGrArArGrGrUrUrGrUrCrUrArCrUrUrCdTdT / antisense rGrArArGrUrArGrArCrArArCrCrUrUrCrUrCrUdGdA”, 78.8%.
On the same count and under the same terms, in the case of “sense rGrArGrUrCrArGrArCrUrUrArArArCrCrArCrUdTdT / antisense rArGrUrGrGrUrUrUrArArGrUrCrUrGrArCrUrCdAdG” it was 88.7%; in that of “sense rUrCrUrGrUrUrUrGrArGrCrArUrCrUrCrArGrGdTdT / antisense rCrCrUrGrArGrArUrGrCrUrCrArArArCrArGrAdTdT”, 56%.
Still for that read-out and setting: with “sense rCrArGrArArGrUrCrArArUrUrCrArUrCrUrGrGdTdT / antisense rCrCrArGrArUrGrArArUrUrGrArCrUrUrCrUrGdCdC” the figure was 60.5%.
In the case of “sense rUrGrGrUrGrGrGrUrCrArGrCrUrGrUrArCrUrGdTdT / antisense rCrArGrUrArCrArGrCrUrGrArCrCrCrArCrCrAdTdG”, the normalised inhibition (eCFP-eYFP dual reporter) came to 83.4%.
Turning to “sense rCrArArArUrArArGrCrUrUrUrArArGrGrCrArGdTdT / antisense rCrUrGrCrCrUrUrArArArGrCrUrUrArUrUrUrGdCdC”, the normalised inhibition (eCFP-eYFP dual reporter) was determined as 56%.
Same read-out and setting: in the case of “sense rCrArUrCrUrCrArGrGrCrCrArUrCrArUrCrCrUdTdT / antisense rArGrGrArUrGrArUrGrGrCrCrUrGrArGrArUrGdCdT” it was 64.7%; in that of “sense rCrCrCrArArCrCrUrGrUrArGrCrUrArArGrArAdTdT / antisense rUrUrCrUrUrArGrCrUrArCrArGrGrUrUrGrGrGdTdA”, 78.5%.
On to “sense rArUrUrUrArCrArArGrArUrGrArUrArUrArCrCdTdT / antisense rGrGrUrArUrArUrCrArUrCrUrUrGrUrArArArUdCdA”, for which the normalised inhibition (eCFP-eYFP dual reporter) is 47.6%.
Still for that read-out and setting: in the case of “sense rGrUrUrGrCrCrUrUrUrArArArArUrCrUrGrGrAdTdT / antisense rUrCrCrArGrArUrUrUrUrArArArGrGrCrArArCdAdG” it was 55.2%; in that of “sense rGrUrUrUrGrArGrCrArUrCrUrCrArGrGrCrCrAdTdT / antisense rUrGrGrCrCrUrGrArGrArUrGrCrUrCrArArArCdAdG”, 72.6%; in that of “sense rArGrArArGrUrCrArArUrUrCrArUrCrUrGrGrAdTdT / antisense rUrCrCrArGrArUrGrArArUrUrGrArCrUrUrCrUdGdC”, 79.6%.
As to “sense rGrArGrCrArUrCrUrCrArGrGrCrCrArUrCrArUdTdT / antisense rArUrGrArUrGrGrCrCrUrGrArGrArUrGrCrUrCdAdA”, the normalised inhibition (eCFP-eYFP dual reporter) stood at 64.1%.
The same measure, in the same setting: with “sense rArGrGrArCrArGrCrArUrUrArUrUrArGrCrCrAdTdT / antisense rUrGrGrCrUrArArUrArArUrGrCrUrGrUrCrCrUdTdA” the figure was 74.8%.
The same measure, in the same setting: in the case of “sense rArUrGrArArArCrCrArCrCrArArGrCrArUrUrAdTdT / antisense rUrArArUrGrCrUrUrGrGrUrGrGrUrUrUrCrArUdGdG” it was 68.1%.
Still for that read-out and setting: with “sense rGrCrGrCrCrGrGrGrCrCrCrArGrCrArGrCrArGdTdT / antisense rCrUrGrCrUrGrCrUrGrGrGrCrCrCrGrGrCrGrCdTdG” the figure was 35.3%.
In the case of “sense rArCrArGrCrArUrUrArUrUrArGrCrCrArUrCrAdTdT / antisense rUrGrArUrGrGrCrUrArArUrArArUrGrCrUrGrUdCdC”, the normalised inhibition (eCFP-eYFP dual reporter) stood at 54.7%.
On the same count and under the same terms, in the case of “sense rCrUrCrUrUrArUrArUrUrCrCrGrArCrGrArArUdTdT / antisense rArUrUrCrGrUrCrGrGrArArUrArUrArArGrArGdCdT” it was 98.8%.
The same measure, in the same setting: in the case of “sense rUrGrUrCrUrArCrUrUrCrArCrCrArGrArUrGrUdTdT / antisense rArCrArUrCrUrGrGrUrGrArArGrUrArGrArCrAdAdC” it was 73.1%; in that of “sense rCrCrUrUrUrCrArUrCrArArCrCrUrArCrCrCrAdTdT / antisense rUrGrGrGrUrArGrGrUrUrGrArUrGrArArArGrGdAdT”, 56.2%; in that of “sense rGrGrArGrArGrGrGrArGrCrCrArUrArGrGrUrUdTdT / antisense rArArCrCrUrArUrGrGrCrUrCrCrCrUrCrUrCrCdTdT”, 61%.
Same read-out and setting: with “sense rArGrGrArArArGrArArGrArGrCrArCrUrUrGrCdTdT / antisense rGrCrArArGrUrGrCrUrCrUrUrCrUrUrUrCrCrUdCdA” the figure was 70.7%.
